From patent US20240246977A1, “DEGRADATION OF BRUTON'S TYROSINE KINASE (BTK) BY CONJUGATION OF BTK INHIBITORS WITH E3 LIGASE LIGAND AND METHOD OF USE” (BeiGene Switzerland GmbH, priority 2021, published 2024)

How the values were obtained:
[1] = system: HEK-293 cells; assay: HEK-293 cytotoxicity detection (CellTiter-Glo); assay type: cell-based; details: Homo sapiens, 72 h, 72 h incubation, CellTiter-Glo luminescence, read-out: HEK293
Summary of the method: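 HEK-293 cells exposed 72 h to 8 compounds doses (4-fold dilutions, top stock 5 mM at 500×) in 0.2% DMSO. Viability by CellTiter-Glo luminescence; inhibition normalised to DMSO high control and low control, IC50 from four-parameter curve fit.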

[2] = biological target: BTK (Homo sapiens, UniProt Q06187); assay: BTK cell degradation in TMD-8 cells, HTRF assay; assay type: cell-based; set-up: endogenous in cells; host or cells: TMD-8 cells; details: 6 h treatment, IC50 (DC50) of BTK degradation
Summary of the method: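 BTK levels read by HTRF in lysates of TMD-8 cells exposed to compounds for 6 h, eight concentrations at 6-fold steps in 0.2% DMSO. Percent degradation versus DMSO and low controls was fitted with a four-parameter equation to give DC50; Dmax is maximal degradation.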

Sequence of BTK (Q06187 whole entry): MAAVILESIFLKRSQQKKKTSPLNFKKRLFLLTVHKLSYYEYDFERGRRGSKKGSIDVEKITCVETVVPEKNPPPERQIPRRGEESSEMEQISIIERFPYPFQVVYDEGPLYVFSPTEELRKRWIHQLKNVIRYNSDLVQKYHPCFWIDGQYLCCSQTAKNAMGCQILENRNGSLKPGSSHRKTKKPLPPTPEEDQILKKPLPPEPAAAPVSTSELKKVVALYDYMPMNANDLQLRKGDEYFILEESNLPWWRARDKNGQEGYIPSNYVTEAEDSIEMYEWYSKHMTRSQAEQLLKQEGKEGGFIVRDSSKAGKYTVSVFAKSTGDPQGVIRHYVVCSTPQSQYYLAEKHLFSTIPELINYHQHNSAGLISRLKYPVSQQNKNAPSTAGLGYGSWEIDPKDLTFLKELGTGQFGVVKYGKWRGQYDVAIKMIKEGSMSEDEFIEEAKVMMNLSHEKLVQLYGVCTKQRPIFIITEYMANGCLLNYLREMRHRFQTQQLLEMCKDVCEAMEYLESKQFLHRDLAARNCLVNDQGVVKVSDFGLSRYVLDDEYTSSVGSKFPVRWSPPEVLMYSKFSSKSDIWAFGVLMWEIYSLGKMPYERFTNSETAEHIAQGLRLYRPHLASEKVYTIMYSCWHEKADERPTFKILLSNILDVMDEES

Row | Compound | DC50 [2] | IC50 [1]
1 | Cc1c(C(=O)Nc2cscn2)ccc(-c2nn3c(c2C(N)=O)Nc2ccc(N4CCN(C[C@H]5CCN(c6ccc(N7CCC(=O)NC7=O)cc6)C5)CC4)cc2CC3)c1F [Example B103, (R)-7-(4-((1-(4-(2,4-dioxotetrahydropyrimidin-1(2H)-yl)phenyl)pyrrolidin-3-yl)methyl)piperazin-1-yl)-2-(2-fluoro-3-methyl-4-(thiazol-4-ylcarbamoyl)phenyl)-9,10-dihydro-4H-benzo[d]pyrazolo[1,5-a][1,3]diazepine-3-carboxamide] | 3.3 nM | > 10000 nM
2 | COc1ccccc1C(=O)NC(C)c1ccc(-c2nn3c(c2C(N)=O)Nc2ccc(N4CCN(CC5CCN(c6ccc(N7CCC(=O)NC7=O)cc6)CC5)CC4)cc2CC3)cc1 (stereo not shown) [Example C5, 7-(4-((1-(4-(2,4-dioxotetrahydropyrimidin-1(2H)-yl)phenyl)piperidin-4-yl)methyl)piperazin-1-yl)-2-(4-(1-(2-methoxybenzamido)ethyl)phenyl)-9,10-dihydro-4H-benzo[d]pyrazolo[1,5-a][1,3]diazepine-3-carboxamide] | 3.82 nM | > 10000 nM
3 | COc1ccc(Cl)cc1C(=O)NCc1ccc(-c2nn3c(c2C(N)=O)Nc2ccc(N4CCN(CC5CCN(c6ccc(N7CCC(=O)NC7=O)cc6)CC5)CC4)cc2CC3)cc1C [Example C6, 2-(4-((5-chloro-2-methoxybenzamido)methyl)-3-methylphenyl)-7-(4-((1-(4-(2,4-dioxotetrahydropyrimidin-1(2H)-yl)phenyl)piperidin-4-yl)methyl)piperazin-1-yl)-9,10-dihydro-4H-benzo[d]pyrazolo[1,5-a][1,3]diazepine-3-carboxamide] | 3.4 nM | > 10000 nM
4 | Cc1cc(-c2nn3c(c2C(N)=O)Nc2ccc(N4CCN(CC5CCN(c6ccc(N7CCC(=O)NC7=O)cc6)CC5)CC4)cc2CC3)ccc1CNC(=O)c1noc(C(C)(C)C)n1 [Example C7, 5-(tert-butyl)-N-(4-(3-carbamoyl-7-(4-((1-(4-(2,4-dioxotetrahydropyrimidin-1(2H)-yl)phenyl)piperidin-4-yl)methyl)piperazin-1-yl)-9,10-dihydro-4H-benzo[d]pyrazolo[1,5-a][1,3]diazepin-2-yl)-2-methylbenzyl)-1,2,4-oxadiazole-3-carboxamide] | 22.7 nM | > 10000 nM
5 | Cc1cc(-c2nn3c(c2C(N)=O)Nc2ccc(N4CCN(CC5CCN(c6ccc(N7CCC(=O)NC7=O)cc6)CC5)CC4)cc2CC3)ccc1CNC(=O)c1nc(C(C)(C)C)no1 [Example C8, 3-(tert-butyl)-N-(4-(3-carbamoyl-7-(4-((1-(4-(2,4-dioxotetrahydropyrimidin-1(2H)-yl)phenyl)piperidin-4-yl)methyl)piperazin-1-yl)-9,10-dihydro-4H-benzo[d]pyrazolo[1,5-a][1,3]diazepin-2-yl)-2-methylbenzyl)-1,2,4-oxadiazole-5-carboxamide] | 15.6 nM | > 10000 nM
6 | Cc1cc(-c2nn3c(c2C(N)=O)Nc2ccc(N4CCN(CC5CCN(c6ccc(N7CCC(=O)NC7=O)cc6)CC5)CC4)cc2CC3)ccc1CNC(=O)c1ccn(C(C)(C)C)n1 [Example C9, 2-(4-((1-(tert-butyl)-1H-pyrazole-3-carboxamido)methyl)-3-methylphenyl)-7-(4-((1-(4-(2,4-dioxotetrahydropyrimidin-1(2H)-yl)phenyl)piperidin-4-yl)methyl)piperazin-1-yl)-9,10-dihydro-4H-benzo[d]pyrazolo[1,5-a][1,3]diazepine-3-carboxamide] | 54.2 nM | > 10000 nM
7 | COc1ccc2ccccc2c1C(=O)NCc1ccc(-c2nn3c(c2C(N)=O)Nc2ccc(N4CCN(CC5CCN(c6ccc(N7CCC(=O)NC7=O)cc6)CC5)CC4)cc2CC3)cc1C [Example C10, 7-(4-((1-(4-(2,4-dioxotetrahydropyrimidin-1(2H)-yl)phenyl)piperidin-4-yl)methyl)piperazin-1-yl)-2-(4-((2-methoxy-1-naphthamido)methyl)-3-methylphenyl)-9,10-dihydro-4H-benzo[d]pyrazolo[1,5-a][1,3]diazepine-3-carboxamide] | 10.1 nM | > 10000 nM
8 | COc1ccc(C(F)(F)F)cc1C(=O)NCc1ccc(-c2nn3c(c2C(N)=O)Nc2ccc(N4CCN(CC5CCN(c6ccc(N7CCC(=O)NC7=O)cc6)CC5)CC4)cc2CC3)cc1C [Example C11, 7-(4-((1-(4-(2,4-dioxotetrahydropyrimidin-1(2H)-yl)phenyl)piperidin-4-yl)methyl)piperazin-1-yl)-2-(4-((2-methoxy-5-(trifluoromethyl)benzamido)methyl)-3-methylphenyl)-9,10-dihydro-4H-benzo[d]pyrazolo[1,5-a][1,3]diazepine-3-carboxamide] | 3.36 nM | > 10000 nM
9 | COc1ccc2ccccc2c1C(=O)N[C@H](C)c1ccc(-c2nn3c(c2C(N)=O)Nc2ccc(N4CCN(CC5CCN(c6ccc(N7CCC(=O)NC7=O)cc6)CC5)CC4)cc2CC3)cc1 [Example C13, (R)-7-(4-((1-(4-(2,4-dioxotetrahydropyrimidin-1(2H)-yl)phenyl)piperidin-4-yl)methyl)piperazin-1-yl)-2-(4-(1-(2-methoxy-1-naphthamido)ethyl)phenyl)-9,10-dihydro-4H-benzo[d]pyrazolo[1,5-a][1,3]diazepine-3-carboxamide] | 11.6 nM | > 10000 nM
10 | CC(Nc1cc(C(F)(F)F)ccn1)c1ccc(-c2nn3c(c2C(N)=O)Nc2ccc(N4CCN(CC5CCN(c6ccc(N7CCC(=O)NC7=O)cc6)CC5)CC4)cc2CC3)cc1 (stereo not shown) [Example C15, 7-(4-((1-(4-(2,4-dioxotetrahydropyrimidin-1(2H)-yl)phenyl)piperidin-4-yl)methyl)piperazin-1-yl)-2-(4-(1-((4-(trifluoromethyl)pyridin-2-yl)amino)ethyl)phenyl)-9,10-dihydro-4H-benzo[d]pyrazolo[1,5-a][1,3]diazepine-3-carboxamide] | 14.6 nM | 8850 nM

Molecules with a lower DC50 [2], results first:

Row | DC50 [2] | Compound | IC50 [1]
11 | 1.1 nM | Cc1c(C(=O)Nc2cscn2)ccc(-c2nn3c(c2C(N)=O)Nc2ccc(N4CCN(C(=O)C5CCN(c6ccc(N7CCC(=O)NC7=O)cc6)CC5)CC4)cc2CC3)c1F [Example B102, 7-(4-(1-(4-(2,4-dioxotetrahydropyrimidin-1(2H)-yl)phenyl)piperidine-4-carbonyl)piperazin-1-yl)-2-(2-fluoro-3-methyl-4-(thiazol-4-ylcarbamoyl)phenyl)-9,10-dihydro-4H-benzo[d]pyrazolo[1,5-a][1,3]diazepine-3-carboxamide] | > 10000 nM
12 | 0.758 nM | COc1ccccc1C(=O)NCc1ccc(-c2nn3c(c2C(N)=O)Nc2ccc(N4CCN(CC5CCN(c6ccc(N7CCC(=O)NC7=O)cc6)CC5)CC4)cc2CC3)cc1 [Example C1, 7-(4-((1-(4-(2,4-dioxotetrahydropyrimidin-1(2H)-yl)phenyl)piperidin-4-yl)methyl)piperazin-1-yl)-2-(4-((2-methoxybenzamido)methyl)phenyl)-9,10-dihydro-4H-benzo[d]pyrazolo[1,5-a][1,3]diazepine-3-carboxamide] | > 10000 nM
13 | 0.52 nM | COc1ccc(C)cc1C(=O)NCc1ccc(-c2nn3c(c2C(N)=O)Nc2ccc(N4CCN(CC5CCN(c6ccc(N7CCC(=O)NC7=O)cc6)CC5)CC4)cc2CC3)cc1 [Example C2, 7-(4-((1-(4-(2,4-dioxotetrahydropyrimidin-1(2H)-yl)phenyl)piperidin-4-yl)methyl)piperazin-1-yl)-2-(4-((2-methoxy-5-methylbenzamido)methyl)phenyl)-9,10-dihydro-4H-benzo[d]pyrazolo[1,5-a][1,3]diazepine-3-carboxamide] | > 10000 nM
14 | 0.343 nM | COc1ccc(F)cc1C(=O)NCc1ccc(-c2nn3c(c2C(N)=O)Nc2ccc(N4CCN(CC5CCN(c6ccc(N7CCC(=O)NC7=O)cc6)CC5)CC4)cc2CC3)cc1 [Example C3, 7-(4-((1-(4-(2,4-dioxotetrahydropyrimidin-1(2H)-yl)phenyl)piperidin-4-yl)methyl)piperazin-1-yl)-2-(4-((5-fluoro-2-methoxybenzamido)methyl)phenyl)-9,10-dihydro-4H-benzo[d]pyrazolo[1,5-a][1,3]diazepine-3-carboxamide] | > 10000 nM
15 | 0.282 nM | COc1ccc2ccccc2c1C(=O)NCc1ccc(-c2nn3c(c2C(N)=O)Nc2ccc(N4CCN(CC5CCN(c6ccc(N7CCC(=O)NC7=O)cc6)CC5)CC4)cc2CC3)cc1 [Example C4, 7-(4-((1-(4-(2,4-dioxotetrahydropyrimidin-1(2H)-yl)phenyl)piperidin-4-yl)methyl)piperazin-1-yl)-2-(4-((2-methoxy-1-naphthamido)methyl)phenyl)-9,10-dihydro-4H-benzo[d]pyrazolo[1,5-a][1,3]diazepine-3-carboxamide] | > 10000 nM
16 | 1.82 nM | CC(C)(C)c1noc(C(=O)NCc2ccc(-c3nn4c(c3C(N)=O)Nc3ccc(N5CCN(CC6CCN(c7ccc(N8CCC(=O)NC8=O)cc7)CC6)CC5)cc3CC4)cc2)n1 [Example C12, 3-(tert-butyl)-N-(4-(3-carbamoyl-7-(4-((1-(4-(2,4-dioxotetrahydropyrimidin-1(2H)-yl)phenyl)piperidin-4-yl)methyl)piperazin-1-yl)-9,10-dihydro-4H-benzo[d]pyrazolo[1,5-a][1,3]diazepin-2-yl)benzyl)-1,2,4-oxadiazole-5-carboxamide] | > 10000 nM
17 | 2.76 nM | COc1ccccc1C(=O)N[C@H](C)c1ccc(-c2nn3c(c2C(N)=O)Nc2ccc(N4CCN(CC5CCN(c6ccc(N7CCC(=O)NC7=O)cc6)CC5)CC4)cc2CC3)cc1 [Example C14, (R)-7-(4-((1-(4-(2,4-dioxotetrahydropyrimidin-1(2H)-yl)phenyl)piperidin-4-yl)methyl)piperazin-1-yl)-2-(4-(1-(2-methoxybenzamido)ethyl)phenyl)-9,10-dihydro-4H-benzo[d]pyrazolo[1,5-a][1,3]diazepine-3-carboxamide] | > 10000 nM
